What all share (format): cell-based
For experiment [1], the target named is T1, human β1 adrenergic receptor (Homo sapiens, UniProt P08588).
T1 construct: expressed in transfected cells; host or cells: CHO (Chinese Hamster Ovary) cells, pcDNA3
As to the kind of experiment: Test Example 2-B: human β1 adrenergic receptor agonist activity (method of Test Example 1-B). As to conditions: for β1 receptor EC50: Table 2, Test Example 2-B; for Emax: read-out: β1 receptor I.A. On the procedure: (§1) The measurement of human β3 adrenergic receptor agonist activity is carried out using CHO (Chinese Hamster Ovary) cells transfected with pcDNA3 (manufactured by Invitrogen, Inc.) to which human β3 gene has been inserted. […] This human β3 cDNA fragment is used as a probe, and the full length human β3 gene is obtained from a human genomic library (manufactured by Clontech Laboratories, Inc.). The above cells are cultured in Ham's F-12 medium containing 10% fetal bovine serum and 400 μg/ml geneticin (manufactured by Invitrogen, Inc.). These cells are seeded on a 96-well plate to a concentration of 2×10^4 cells/well, and after being cultured for about 20 hours, the cells are left to stand in 80 μL of serum-free Ham's F-12 medium for 15 minutes. A test compound is initially dissolved in DMSO, and then is diluted stepwise with Ham's F-12 containing 100 mmol/L HEPES and 1 mmol/L isobutylmethylxanthine. 20 μL of the dilution is added to the cells. After the cells are cultured for 30 minutes, the medium is removed. 0.3. ml of the Assay/lysis Buffer included in cAMP-Screen kit (manufactured by Applied Biosystems, Inc.) is added to the cells, and the cells are incubated at 37° C. for 30 minutes. The resulting cell lysate is subjected to quantification of cAMP with the cAMP-Screen kit. […] Measurement of Human β1 Adrenergic Receptor Agonist Activity

Experiment [2] has as its target T2, human β2 adrenergic receptor (Homo sapiens, UniProt P07550).
T2 construct: expressed in transfected cells; host or cells: CHO (Chinese Hamster Ovary) cells, pcDNA3
As to the kind of experiment: Test Example 3-B: human β2 adrenergic receptor agonist activity (method of Test Example 1-B). To be noted: for β2 receptor EC50: Table 2, Test Example 3-B; for Emax: read-out: β2 receptor I.A. As for the experimental part:
[Worded in the source for another target; this target is reported under the same test.] as §1, with “β2” for “β1”

For experiment [3], the target named is T3, human β3 adrenergic receptor (Homo sapiens, UniProt P13945).
T3 construct: the full length human β3 gene is obtained from a human genomic library; expressed in transfected cells; host or cells: CHO (Chinese Hamster Ovary) cells, pcDNA3, geneticin selection
T3 sequence (P13945 whole entry): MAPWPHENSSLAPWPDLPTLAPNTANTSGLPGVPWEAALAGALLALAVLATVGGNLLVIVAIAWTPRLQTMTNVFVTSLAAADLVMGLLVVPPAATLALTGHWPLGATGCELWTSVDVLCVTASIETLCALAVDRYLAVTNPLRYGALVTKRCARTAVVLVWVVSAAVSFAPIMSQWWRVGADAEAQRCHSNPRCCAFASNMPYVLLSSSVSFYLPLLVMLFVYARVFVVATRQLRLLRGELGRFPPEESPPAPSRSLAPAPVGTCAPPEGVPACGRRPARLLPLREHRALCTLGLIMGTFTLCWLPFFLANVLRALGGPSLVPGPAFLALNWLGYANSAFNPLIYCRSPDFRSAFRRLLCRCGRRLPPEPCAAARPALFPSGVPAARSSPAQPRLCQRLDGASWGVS
Nature of the experiment: Test Example 1-B: human β3 adrenergic receptor agonist activity (cAMP-Screen kit, transfected CHO cells, 96-well). As to conditions: for Emax: CHO, read-out: β3 receptor I.A.; for EC50: Table 2, Test Example 1-B. As for the experimental part: Measurement of Human β3 Adrenergic Receptor Agonist Activity
The measurement of human β3 adrenergic receptor agonist activity is carried out using CHO (Chinese Hamster Ovary) cells transfected with pcDNA3 (manufactured by Invitrogen, Inc.) to which human β3 gene has been inserted. […] This human β3 cDNA fragment is used as a probe, and the full length human β3 gene is obtained from a human genomic library (manufactured by Clontech Laboratories, Inc.). The above cells are cultured in Ham's F-12 medium containing 10% fetal bovine serum and 400 μg/ml geneticin (manufactured by Invitrogen, Inc.). These cells are seeded on a 96-well plate to a concentration of 2×10^4 cells/well, and after being cultured for about 20 hours, the cells are left to stand in 80 μL of serum-free Ham's F-12 medium for 15 minutes. A test compound is initially dissolved in DMSO, and then is diluted stepwise with Ham's F-12 containing 100 mmol/L HEPES and 1 mmol/L isobutylmethylxanthine. 20 μL of the dilution is added to the cells. After the cells are cultured for 30 minutes, the medium is removed. 0.3. ml of the Assay/lysis Buffer included in cAMP-Screen kit (manufactured by Applied Biosystems, Inc.) is added to the cells, and the cells are incubated at 37° C. for 30 minutes. The resulting cell lysate is subjected to quantification of cAMP with the cAMP-Screen kit.

Experiment [4] deals with T4, human α1A adrenergic receptor (Homo sapiens, UniProt P35348).
T4 construct: expressed in transfected cells; host or cells: HEK293 cells, pcDNA3.1(−), hygromycin B selection
T4 sequence (P35348 1-466): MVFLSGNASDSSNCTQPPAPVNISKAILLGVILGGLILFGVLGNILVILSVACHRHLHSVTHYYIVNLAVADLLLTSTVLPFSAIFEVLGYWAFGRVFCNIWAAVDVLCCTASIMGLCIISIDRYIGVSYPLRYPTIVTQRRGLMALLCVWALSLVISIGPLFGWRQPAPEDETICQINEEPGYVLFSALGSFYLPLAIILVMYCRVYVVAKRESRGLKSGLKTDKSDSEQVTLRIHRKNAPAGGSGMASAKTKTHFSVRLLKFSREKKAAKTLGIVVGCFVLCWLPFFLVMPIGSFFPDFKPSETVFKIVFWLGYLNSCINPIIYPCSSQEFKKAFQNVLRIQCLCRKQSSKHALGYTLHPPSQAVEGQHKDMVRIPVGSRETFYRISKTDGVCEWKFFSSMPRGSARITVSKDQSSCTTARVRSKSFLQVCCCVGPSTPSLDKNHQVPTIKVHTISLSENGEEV
Nature of the experiment: Test Example 4: human α1A adrenergic receptor agonist activity (Ca flux, Fura-2, transfected HEK293 cells). To be noted: for Emax: HEK293, read-out: α1A receptor I.A. On the procedure:
Measurement of Human α1A Adrenergic Receptor Agonist Activity
The measurement of human α1A adrenergic receptor agonist activity is carried out using HEK293 cells transfected with pcDNA3.1(−) (manufactured by Invitrogen, Inc.) to which human α1A gene has been inserted. These cells are cultured in DMEM medium containing 10% fetal bovine serum, 400 μg/ml hygromycin B (manufactured by Gibco BRL), 100 U/ml penicillin and 100 μg/ml streptomycin. […] The cells are loaded in a CO2 incubator for 30 minutes, and then are washed twice with the Assay Buffer to remove excess Fura-2AM. The cells are centrifuged, and then are prepared into a solution at 5×10^6 cells/ml with the Assay Buffer. Subsequently, the cells are dispensed on a 96-well plate (manufactured by Corning, Inc.) at a volume of 80 μl/well, and the plate is used as a cell plate. […] Subsequently, measurement of fluorescence intensity (excitation wavelength 340 nm and 380 nm, measurement wavelength 500 nm) is initiated at an interval of 2 seconds. After making measurements for about 30 seconds, 20 μl of the test sample from the sample plate is added to the cell plate, and measurements are further continued for 270 seconds. The Ca flux resulting from the test compound is calculated utilizing the difference between the maximum value of fluorescence intensity ratio at the wavelengths 340 nm and 380 nm after the addition of the test compound, and the fluorescence intensity ratio before the addition of the test compound, as the peak height.

[5] abbreviates: Table 2, Test Example 4, read-out: α1A receptor EC50.

Like-named read-outs stand apart in the source and are kept apart here. Where only a bound is given, the exact number is not on record here.

T2 sequence (P07550 whole entry): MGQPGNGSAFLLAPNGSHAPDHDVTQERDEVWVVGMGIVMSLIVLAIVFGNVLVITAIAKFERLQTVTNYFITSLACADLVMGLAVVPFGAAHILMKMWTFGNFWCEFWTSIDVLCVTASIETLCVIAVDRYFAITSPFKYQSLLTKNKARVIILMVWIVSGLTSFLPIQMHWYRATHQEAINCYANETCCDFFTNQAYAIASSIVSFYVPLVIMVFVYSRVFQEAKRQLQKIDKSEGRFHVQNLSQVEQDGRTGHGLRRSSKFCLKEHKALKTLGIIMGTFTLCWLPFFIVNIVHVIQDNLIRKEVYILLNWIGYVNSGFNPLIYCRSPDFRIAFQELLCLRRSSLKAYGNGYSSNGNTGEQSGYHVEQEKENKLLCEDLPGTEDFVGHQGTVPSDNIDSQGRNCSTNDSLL
T1 sequence (P08588 whole entry): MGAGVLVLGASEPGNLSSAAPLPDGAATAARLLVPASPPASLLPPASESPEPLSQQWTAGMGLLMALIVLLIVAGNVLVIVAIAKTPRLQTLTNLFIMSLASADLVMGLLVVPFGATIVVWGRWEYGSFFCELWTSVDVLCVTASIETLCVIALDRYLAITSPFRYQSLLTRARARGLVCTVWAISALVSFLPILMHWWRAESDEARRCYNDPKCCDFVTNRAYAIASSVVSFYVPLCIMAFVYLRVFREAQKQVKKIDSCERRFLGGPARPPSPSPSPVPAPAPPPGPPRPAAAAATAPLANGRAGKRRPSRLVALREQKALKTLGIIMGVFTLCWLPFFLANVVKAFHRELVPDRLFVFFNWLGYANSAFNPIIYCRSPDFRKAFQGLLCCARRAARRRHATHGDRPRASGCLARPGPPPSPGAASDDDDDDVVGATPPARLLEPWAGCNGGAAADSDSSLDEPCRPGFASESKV

On to `CCc1n[nH]c2cc(OCCNC[C@H](O)c3cccc(NS(=O)(=O)c4ccccc4)c3)ccc12` [Example 15, (R)-N-(3-(2-(2-(3-ethylindazol-6-yloxy)ethylamino)-1-hydroxyethyl)phenyl)benzenesulfonamide], for which the “β1 receptor EC50” value in experiment [1] is listed as “a)”. Besides, the Emax is 1% in experiment [1], -3% in experiment [2], 80% in experiment [3] and 0% in experiment [4]. Moreover, the “β2 receptor EC50” value in experiment [2] was “b)”. Moreover, the EC50 is 13 nM in experiment [3] and over 2000 nM in experiment [4] (setting [5]).

Consider `Cc1n[nH]c2cc(OCCNC[C@H](O)c3cccc(NS(=O)(=O)c4ccccc4)c3)ccc12` [Example 14, (R)-N-(3-(1-hydroxy-2-(2-(3-methylindazol-6-yloxy)ethylamino)ethyl)phenyl)benzenesulfonamide], for which, in experiment [1], the “β1 receptor EC50” value was “a)” and the Emax worked out at 16%. In experiment [2], the “β2 receptor EC50” value is listed as “b)” and the Emax was 0%. Further, in experiment [3], the Emax was 90% and it took 10 nM to reach a half-maximal effect (EC50). Further, in experiment [4], the EC50 was over 2000 nM and the Emax was 0%.

Turning to `Cc1n[nH]c2cc(OCCNC[C@H](O)c3cccc(NS(=O)(=O)C(C)C)c3)ccc12` [Example 12, (R)-N-(3-(1-hydroxy-2-(2-(3-methylindazol-6-yloxy)ethylamino)ethyl)phenyl)propane-2-sulfonamide], in experiment [1], the “β1 receptor EC50” value was “b)” and the Emax is -1%. In addition, in experiment [2], the “β2 receptor EC50” value is recorded as “a)” and the Emax was determined as 2%. In addition, in experiment [3], the Emax worked out at 84% and the EC50 was found to be 84 nM. In addition, in experiment [4], the EC50 was 1310 nM and the Emax turned out to be 34%.

Consider `CS(=O)(=O)Nc1cc([C@@H](O)CNCCOc2ccc3c(C(F)(F)F)n[nH]c3c2)ccc1F` [Example 10, (R)-N-(2-fluoro-5-(1-hydroxy-2-(2-(3-(trifluoromethyl)indazol-6-yloxy)ethylamino)ethyl)phenyl)methanesulfonamide], for which the “β1 receptor EC50” value in experiment [1] was “a)”. Further, the Emax was determined as 8% in experiment [1], 3% in experiment [2], 53% in experiment [3] and 15% in experiment [4]. Also, the “β2 receptor EC50” value in experiment [2] is “a)”. Further, the EC50 was 41 nM in experiment [3] and 1290 nM in experiment [4] (setting [5]).

As to `NC[C@H](O)c1ccc(O)c(O)c1` [Norepinephrine, reference compound], in experiment [4], the Emax was 100%. In addition, in experiment [4] (Table 2, maximum response to norepinephrine taken as 100%), the “α1A receptor I.A.” value is given as 100%.

`CCc1n[nH]c2cc(OCCNC[C@H](O)c3cccc(NS(=O)(=O)C(C)C)c3)ccc12` [Example 13, (R)-N-(3-(2-(2-(3-ethylindazol-6-yloxy)ethylamino)-1-hydroxyethyl)phenyl)propane-2-sulfonamide]: in experiment [1], the “β1 receptor EC50” value is “b)”. The Emax in experiment [1] was -2%; in experiment [2], -3%; in experiment [3] it was 80%; in experiment [4], 20%. In addition, the “β2 receptor EC50” value in experiment [2] is “b)”. Also, the results for the EC50 in experiment [3] and in experiment [4] (setting [5]) were 47 nM and over 2000 nM, respectively.

For the compound `CC(C)c1n[nH]c2cc(OCCNC[C@H](O)c3ccc(Cl)c(NS(C)(=O)=O)c3)ccc12` [Example 7, (R)-N-(2-chloro-5-(1-hydroxy-2-(2-(3-isopropylindazol-6-yloxy)ethylamino)ethyl)phenyl)methanesulfonamide], in experiment [1], the “β1 receptor EC50” value was “a)”. The Emax was 22% in experiment [1], 8% in experiment [2], 65% in experiment [3] and 0% in experiment [4]. The “β2 receptor EC50” value in experiment [2] is “a)”. Also, the values for the EC50 in experiment [3] and in experiment [4] (setting [5]) were 13 nM and over 2000 nM, respectively.

For the compound `CCc1n[nH]c2cc(OCCNC[C@H](O)c3cccc(NS(=O)(=O)CC)c3)ccc12` [Example 20, (R)-N-(3-(2-(2-(3-ethylindazol-6-yloxy)ethylamino)-1-hydroxyethyl)phenyl)ethanesulfonamide], in experiment [1], the “β1 receptor EC50” value is “a)”. The Emax in experiment [1] is 3%; in experiment [2], 5%; in experiment [3], 80%; in experiment [4], 26%. The “β2 receptor EC50” value in experiment [2] is reported as “a)”. Further, the EC50 in experiment [3] turned out to be 11 nM; in experiment [4] (setting [5]) it was 488 nM.

As a reminder, the EC50 is the concentration giving half of the maximal effect.

The values above are taken from patent US8008506B2, “Indazole compounds” (priority 2008, dated 2011).
